Measurements from ChEMBL document CHEMBL4184210, “Optimization of novel monobactams with activity against carbapenem-resistant Enterobacteriaceae - Identification of LYS228” (Bioorg Med Chem Lett, 2018).
Converted amounts (≈) assume the structure as drawn.

Legend:
Escherichia coli [1] = test: Antimicrobial activity against Escherichia coli expressing beta-lactamase KPC-2 by CLSI broth microdilution method; assay type: functional
Escherichia coli [2] = test: Antimicrobial activity against Escherichia coli expressing beta-lactamase VEB-1 by CLSI broth microdilution method; assay type: functional
Escherichia coli [3] = test: Antimicrobial activity against Escherichia coli expressing beta-lactamase TEM-1 by CLSI broth microdilution method; assay type: functional
Escherichia coli [4] = test: Antimicrobial activity against Escherichia coli expressing beta-lactamase NDM-5 by CLSI broth microdilution method; assay type: functional
[5] = Chemical stability in pH 7.4 potassium phosphate buffer assessed as half life for compound hydrolysis at 37 degC by UPLC and mass spectrometry; assay type: physicochemical
Enterobacteriaceae = test: Antimicrobial activity against ESBL, KPC and MBL producing Enterobacteriaceae by CLSI broth microdilution method; assay type: functional
Pseudomonas aeruginosa [6] = test: Antimicrobial activity against Pseudomonas aeruginosa ATCC 27853 by CLSI broth microdilution method; assay type: functional
Pseudomonas aeruginosa [7] = test: Antimicrobial activity against Pseudomonas aeruginosa expressing delta-mexB/delta-mexXY/delta-mexCD and delta-ampC mutant by CLSI broth microdilution method; assay type: functional
Pseudomonas aeruginosa [8] = test: Antimicrobial activity against Pseudomonas aeruginosa expressing nalB/delta-mexXY/delta-mexCDoprJ/delta-ampC by CLSI broth microdilution method; assay type: functional
Pseudomonas aeruginosa [9] = test: Antimicrobial activity against Pseudomonas aeruginosa expressing delta-mexB/mexXY/delta-ampDh2/ delta-ampD by CLSI broth microdilution method; assay type: functional
Escherichia coli [10] = test: microbe, parasite or virus in culture
Description: Antimicrobial activity against wild type Escherichia coli by CLSI broth microdilution method

Escherichia coli [11] = test: microbe, parasite or virus in culture; remark: listed apart in the source
Description: Antimicrobial activity against Escherichia coli expressing beta-lactamase KPC-3 by CLSI broth microdilution method

Escherichia coli [12] = test: microbe, parasite or virus in culture; remark: listed apart in the source
Description: Antimicrobial activity against Escherichia coli expressing beta-lactamase KPC-4 by CLSI broth microdilution method

Escherichia coli [13] = test: microbe, parasite or virus in culture; remark: listed apart in the source
Description: Antimicrobial activity against Escherichia coli expressing beta-lactamase KPC-8 by CLSI broth microdilution method

Escherichia coli [14] = test: microbe, parasite or virus in culture; remark: listed apart in the source
Description: Antimicrobial activity against Escherichia coli expressing beta-lactamase NMC-A by CLSI broth microdilution method

Escherichia coli [15] = test: microbe, parasite or virus in culture; remark: listed apart in the source
Description: Antimicrobial activity against Escherichia coli expressing beta-lactamase PER-2 by CLSI broth microdilution method

Escherichia coli [16] = test: microbe, parasite or virus in culture; remark: listed apart in the source
Description: Antimicrobial activity against Escherichia coli expressing beta-lactamase PER-4 by CLSI broth microdilution method

Escherichia coli [17] = test: microbe, parasite or virus in culture; remark: listed apart in the source
Description: Antimicrobial activity against Escherichia coli expressing beta-lactamase SHV-12 by CLSI broth microdilution method

Escherichia coli [18] = test: microbe, parasite or virus in culture; remark: listed apart in the source
Description: Antimicrobial activity against Escherichia coli expressing beta-lactamase SME-1 by CLSI broth microdilution method

Escherichia coli [19] = test: microbe, parasite or virus in culture; remark: listed apart in the source
Description: Antimicrobial activity against Escherichia coli expressing beta-lactamase VEB-4 by CLSI broth microdilution method

Escherichia coli [20] = test: microbe, parasite or virus in culture; remark: listed apart in the source
Description: Antimicrobial activity against Escherichia coli expressing beta-lactamase VEB-7 by CLSI broth microdilution method

Escherichia coli [21] = test: microbe, parasite or virus in culture; remark: listed apart in the source
Description: Antimicrobial activity against Escherichia coli expressing beta-lactamase TEM-10 by CLSI broth microdilution method

Escherichia coli [22] = test: microbe, parasite or virus in culture; remark: listed apart in the source
Description: Antimicrobial activity against Escherichia coli expressing beta-lactamase TEM-16 by CLSI broth microdilution method

Escherichia coli [23] = test: microbe, parasite or virus in culture; remark: listed apart in the source
Description: Antimicrobial activity against Escherichia coli expressing beta-lactamase TEM-24 by CLSI broth microdilution method

Escherichia coli [24] = test: microbe, parasite or virus in culture; remark: listed apart in the source
Description: Antimicrobial activity against Escherichia coli expressing beta-lactamase TEM-47 by CLSI broth microdilution method

Escherichia coli [25] = test: microbe, parasite or virus in culture; remark: listed apart in the source
Description: Antimicrobial activity against Escherichia coli expressing beta-lactamase TEM-121 by CLSI broth microdilution method

Escherichia coli [26] = test: microbe, parasite or virus in culture; remark: listed apart in the source
Description: Antimicrobial activity against Escherichia coli expressing beta-lactamase GIM-1 by CLSI broth microdilution method

Escherichia coli [27] = test: microbe, parasite or virus in culture; remark: listed apart in the source
Description: Antimicrobial activity against Escherichia coli expressing beta-lactamase IMP-1 by CLSI broth microdilution method

Escherichia coli [28] = test: microbe, parasite or virus in culture; remark: listed apart in the source
Description: Antimicrobial activity against Escherichia coli expressing beta-lactamase SPM-1 by CLSI broth microdilution method

Escherichia coli [29] = test: microbe, parasite or virus in culture; remark: listed apart in the source
Description: Antimicrobial activity against Escherichia coli expressing beta-lactamase AmpC by CLSI broth microdilution method

Escherichia coli [30] = test: microbe, parasite or virus in culture; remark: listed apart in the source
Description: Antimicrobial activity against Escherichia coli expressing beta-lactamase DHA by CLSI broth microdilution method

Escherichia coli [31] = test: microbe, parasite or virus in culture; remark: listed apart in the source
Description: Antimicrobial activity against Escherichia coli expressing beta-lactamase CMY-2 by CLSI broth microdilution method

Escherichia coli [32] = test: microbe, parasite or virus in culture; remark: listed apart in the source
Description: Antimicrobial activity against Escherichia coli expressing beta-lactamase P99 by CLSI broth microdilution method

Escherichia coli [33] = test: microbe, parasite or virus in culture; remark: listed apart in the source
Description: Antimicrobial activity against Escherichia coli expressing beta-lactamase Oxa-10 by CLSI broth microdilution method

Escherichia coli [34] = test: microbe, parasite or virus in culture; remark: listed apart in the source
Description: Antimicrobial activity against Escherichia coli expressing beta-lactamase Oxa-23 by CLSI broth microdilution method

Escherichia coli [35] = test: microbe, parasite or virus in culture; remark: listed apart in the source
Description: Antimicrobial activity against Escherichia coli expressing beta-lactamase Oxa-40 by CLSI broth microdilution method

Escherichia coli [36] = test: microbe, parasite or virus in culture; remark: listed apart in the source
Description: Antimicrobial activity against Escherichia coli expressing beta-lactamase Oxa-48 by CLSI broth microdilution method

Escherichia coli [37] = test: microbe, parasite or virus in culture; remark: listed apart in the source
Description: Antimicrobial activity against Escherichia coli expressing beta-lactamase Oxa-51 by CLSI broth microdilution method

Escherichia coli [38] = test: microbe, parasite or virus in culture; remark: listed apart in the source
Description: Antimicrobial activity against Escherichia coli expressing beta-lactamase Oxa-146 by CLSI broth microdilution method

Escherichia coli [39] = test: microbe, parasite or virus in culture; remark: listed apart in the source
Description: Antimicrobial activity against Escherichia coli expressing beta-lactamase Oxa-181 by CLSI broth microdilution method

Escherichia coli [40] = test: microbe, parasite or virus in culture; remark: listed apart in the source
Description: Antimicrobial activity against Escherichia coli expressing beta-lactamase Oxa-225 by CLSI broth microdilution method

Compound: Nc1nc(/C(=N/OC2(C(=O)O)CC2)C(=O)N[C@@H]2C(=O)N(S(=O)(=O)O)[C@@H]2CN2CCOC2=O)cs1 (stereo in doubt) [ANCREMONAM]
- MIC (Escherichia coli [1]): 0.125 µg/mL (≈ 0.241 µM)
- MIC (Escherichia coli [2]): 32 µg/mL (≈ 61.7 µM)
- MIC (Escherichia coli [3]): 0.25 µg/mL (≈ 0.482 µM)
- MIC (Escherichia coli [4]): 0.125 µg/mL (≈ 0.241 µM)
- half-life [5]: 16.7 days
- MIC90 (Enterobacteriaceae): 2 µg/mL (≈ 3.86 µM)
- MIC (Pseudomonas aeruginosa [6]): 32 µg/mL (≈ 61.7 µM)
- MIC (Pseudomonas aeruginosa [7]): 1 µg/mL (≈ 1.93 µM)
- MIC (Pseudomonas aeruginosa [8]): ≥ 64 µg/mL
- MIC (Pseudomonas aeruginosa [9]): 64 µg/mL (≈ 123 µM)
- MIC (Escherichia coli [10]): 0.125 µg/mL (≈ 0.241 µM)
- MIC (Escherichia coli [11]): 0.25 µg/mL (≈ 0.482 µM)
- MIC (Escherichia coli [12]): 0.5 µg/mL (≈ 0.964 µM)
- MIC (Escherichia coli [13]): 0.125 µg/mL (≈ 0.241 µM)
- MIC (Escherichia coli [14]): 0.125 µg/mL (≈ 0.241 µM)
- MIC (Escherichia coli [15]): 128 µg/mL (≈ 247 µM)
- MIC (Escherichia coli [16]): 8 µg/mL (≈ 15.4 µM)
- MIC (Escherichia coli [17]): 0.5 µg/mL (≈ 0.964 µM)
- MIC (Escherichia coli [18]): 0.125 µg/mL (≈ 0.241 µM)
- MIC (Escherichia coli [19]): 8 µg/mL (≈ 15.4 µM)
- MIC (Escherichia coli [20]): 16 µg/mL (≈ 30.9 µM)
- MIC (Escherichia coli [21]): 1 µg/mL (≈ 1.93 µM)
- MIC (Escherichia coli [22]): 0.25 µg/mL (≈ 0.482 µM)
- MIC (Escherichia coli [23]): 0.5 µg/mL (≈ 0.964 µM)
- MIC (Escherichia coli [24]): 0.125 µg/mL (≈ 0.241 µM)
- MIC (Escherichia coli [25]): 0.25 µg/mL (≈ 0.482 µM)
- MIC (Escherichia coli [26]): 0.125 µg/mL (≈ 0.241 µM)
- MIC (Escherichia coli [27]): 0.125 µg/mL (≈ 0.241 µM)
- MIC (Escherichia coli [28]): 0.125 µg/mL (≈ 0.241 µM)
- MIC (Escherichia coli [29]): 0.25 µg/mL (≈ 0.482 µM)
- MIC (Escherichia coli [30]): 0.5 µg/mL (≈ 0.964 µM)
- MIC (Escherichia coli [31]): 0.25 µg/mL (≈ 0.482 µM)
- MIC (Escherichia coli [32]): 0.25 µg/mL (≈ 0.482 µM)
- MIC (Escherichia coli [33]): 0.125 µg/mL (≈ 0.241 µM)
- MIC (Escherichia coli [34]): 0.125 µg/mL (≈ 0.241 µM)
- MIC (Escherichia coli [35]): 0.125 µg/mL (≈ 0.241 µM)
- MIC (Escherichia coli [36]): 0.125 µg/mL (≈ 0.241 µM)
- MIC (Escherichia coli [37]): 0.125 µg/mL (≈ 0.241 µM)
- MIC (Escherichia coli [38]): 2 µg/mL (≈ 3.86 µM)
- MIC (Escherichia coli [39]): 0.125 µg/mL (≈ 0.241 µM)
- MIC (Escherichia coli [40]): 1 µg/mL (≈ 1.93 µM)

Compound: N=C(N)NCc1cnn(C[C@@H]2[C@H](NC(=O)/C(=N\OC3(C(=O)O)CC3)c3csc(N)n3)C(=O)N2S(=O)(=O)O)n1 (stereo in doubt)
- MIC (Escherichia coli [1]): 0.125 µg/mL (≈ 0.219 µM)
- MIC (Escherichia coli [2]): 16 µg/mL (≈ 28 µM)
- MIC (Escherichia coli [3]): 0.125 µg/mL (≈ 0.219 µM)
- MIC (Escherichia coli [4]): 0.25 µg/mL (≈ 0.437 µM)
- half-life [5]: 20.2 days
- MIC90 (Enterobacteriaceae): 4 µg/mL (≈ 7 µM)
- MIC (Pseudomonas aeruginosa [6]): 2 µg/mL (≈ 3.5 µM)
- MIC (Pseudomonas aeruginosa [7]): 0.25 µg/mL (≈ 0.437 µM)
- MIC (Pseudomonas aeruginosa [8]): 16 µg/mL (≈ 28 µM)
- MIC (Pseudomonas aeruginosa [9]): 32 µg/mL (≈ 56 µM)
- MIC (Escherichia coli [10]): 0.06 µg/mL (≈ 0.105 µM)
- MIC (Escherichia coli [11]): 0.125 µg/mL (≈ 0.219 µM)
- MIC (Escherichia coli [12]): 4 µg/mL (≈ 7 µM)
- MIC (Escherichia coli [13]): 1 µg/mL (≈ 1.75 µM)
- MIC (Escherichia coli [14]): 0.125 µg/mL (≈ 0.219 µM)
- MIC (Escherichia coli [15]): > 64 µg/mL
- MIC (Escherichia coli [16]): 4 µg/mL (≈ 7 µM)
- MIC (Escherichia coli [17]): 0.25 µg/mL (≈ 0.437 µM)
- MIC (Escherichia coli [18]): 0.06 µg/mL (≈ 0.105 µM)
- MIC (Escherichia coli [19]): 16 µg/mL (≈ 28 µM)
- MIC (Escherichia coli [20]): 32 µg/mL (≈ 56 µM)
- MIC (Escherichia coli [21]): 1 µg/mL (≈ 1.75 µM)
- MIC (Escherichia coli [22]): 0.5 µg/mL (≈ 0.875 µM)
- MIC (Escherichia coli [23]): 0.25 µg/mL (≈ 0.437 µM)
- MIC (Escherichia coli [24]): 0.125 µg/mL (≈ 0.219 µM)
- MIC (Escherichia coli [25]): 0.5 µg/mL (≈ 0.875 µM)
- MIC (Escherichia coli [26]): 0.125 µg/mL (≈ 0.219 µM)
- MIC (Escherichia coli [27]): 0.125 µg/mL (≈ 0.219 µM)
- MIC (Escherichia coli [28]): 0.06 µg/mL (≈ 0.105 µM)
- MIC (Escherichia coli [29]): 0.5 µg/mL (≈ 0.875 µM)
- MIC (Escherichia coli [30]): 8 µg/mL (≈ 14 µM)
- MIC (Escherichia coli [31]): 0.5 µg/mL (≈ 0.875 µM)
- MIC (Escherichia coli [32]): 0.25 µg/mL (≈ 0.437 µM)
- MIC (Escherichia coli [33]): 0.25 µg/mL (≈ 0.437 µM)
- MIC (Escherichia coli [34]): 0.25 µg/mL (≈ 0.437 µM)
- MIC (Escherichia coli [35]): 0.125 µg/mL (≈ 0.219 µM)
- MIC (Escherichia coli [36]): 0.06 µg/mL (≈ 0.105 µM)
- MIC (Escherichia coli [37]): 0.125 µg/mL (≈ 0.219 µM)
- MIC (Escherichia coli [38]): 4 µg/mL (≈ 7 µM)
- MIC (Escherichia coli [39]): 0.125 µg/mL (≈ 0.219 µM)
- MIC (Escherichia coli [40]): 0.25 µg/mL (≈ 0.437 µM)
